Converted amounts (≈) assume the structure as drawn.

Test [1] deals with E. coli cells (ATCC 35218). It counts as cell-based. On the procedure:
FIG. 9 illustrates the effect of factor H on AM activity. […] Values represent mean and standard deviation of four independent determinations. […] Results are expressed in inhibition units (10 units correspond to 1 mm of diameter in the inhibition halo). MIC values were estimated by performing a linear regression and determining the x-intercepts. […] Values represent mean and standard deviation of the mean of eight determinations.
Antimicrobial activity was measured using E. coli cells (ATCC 35218, Gaithersburg, Md.) and a radial diffusion assay as previously described (R. I. Lehrer et al., 1991, J. Immunol. Methods 137:167-173). Briefly, bacteria were incorporated into a thin underlay gel that contained 1% agarose, 2 mM HEPES pH 7.2, and 0.3 mg/ml of trypticase soy broth powder. After polymerization of the gel, small wells (10 μl capacity) were carved in the agar. Test substances were added and allowed to diffuse for 3 hr at 37° C. […] The diameters of the inhibition halos were measured to the nearest 0.1 mm and, after subtracting the diameter of the well, were expressed on inhibition units (10 units=1 mm). […]
For statistical calculations, MIC values were analyzed by the Student's t test, cAMP values were analyzed with a one-way analysis of variance (ANOVA) and the Tukey's test, and P<0.05 was considered significant.

Another test addresses T1, AMBP-1 (factor H) (Homo sapiens, UniProt P08603).
T1 construct: Total proteins derived from human plasma (2 μl) were electrophoretically fractionated; from tissue; host or cells: human plasma
The experiment in a line: Ligand blot competition of labeled AM binding to plasma AMBP-1. Conditions: 7 μM unlabeled peptide, preincubation 6 hr at 4° C. As to the method: Total proteins derived from human plasma (2 μl) were electrophoretically fractionated on 3-8% Tris-acetate gel (Novex, San Diego, Calif.) under non-reducing conditions. For the ligand blotting experiment, the proteins were transferred to a […] nitrocellulose membrane that was incubated for […] with 1% Nonidet P-40 (NP-40). Non-specific binding was further blocked with a 2 hr incubation in TBS containing 0.1% ATC. Incubations with 70 nM AM labeled with biotin, fluorescein, or DNP were carried out overnight at 4° C. in blocking buffer containing 0.1% TWEEN® 20 nonionic detergent. For biotin detection, the ligand blot was incubated with an avidin-biotin-peroxidase complex and the AEC reagent (Vector Laboratories, Inc., Burlingame, Calif.). For fluorescein and DNP, the ligand blots were incubated 1 hr at room temperature with rabbit anti-fluorescein or anti-DNP IgG, respectively, (1:1000 in incubation buffer; Molecular Probes, Inc.). Anti-rabbit antibody labeled with alkaline phosphatase (1:2000; Dako Corporation, Carpenteira, Calif.) was added for 0.5 hr, and the blot was developed using 4-nitro blue tetrazolium chloride/5-bromo-4-chloro-3-indolyl phosphate (NBT/BCIP) as the color-substrate solution (Roche Molecular Biochemicals, Indianapolis, Ind.).
Following this preincubation, labeled full-length AM was introduced and incubated overnight at 4° C.

The subject of the next test is AM-binding protein. The experiment in a line: Competitive displacement of 125I-AM on radioligand blot strips. Conditions: increasing concentrations, 10^−10 to 10^−6 M. On the procedure: Further detection and characterization of AM-BPs were performed using radioligand blotting procedures similar to those described for IGF binding proteins in plasma (P. Hossenlopp et al., 1986, Anal. Biochem. 154:138-146). Briefly, plasma or serum from the ten species was diluted 1:5 with water and further mixed 1:2 with SDS Tris-glycineglycerol loading buffer and incubated for 10 min at 70° C. Plasma or serum volumes equivalent to 1.5 μl were loaded onto 10% acrylamide gels under non-reducing conditions. Proteins were separated at 115 v for 0.5 hr and transferred to 0.2 μm nitrocellulose using a semi-moist transfer (Bio-Rad Hercules, Calif.) at 18 v for 42 min. Molecular weight markers (29 kD, 43 kD, 66 kD, 78 kD, and 116 kD) were added to complementary lanes on each gel to assess the relative sizes of the resolved proteins.
Nitrocellulose blots were incubated for 15 min with 1.5% NP-40 (Sigma, St. Louis, Mo.). Nonspecific binding was further blocked with a 4 hr incubation of the nitrocellulose in phosphate buffered saline containing either 1% BSA (RIA Grade, SIGMA, St. Louis, Mo.) or 1% AHC. Incubations with radiolabeled recombinant human ^125I-AM were performed overnight at room temperature with agitation, with 80,000 CPM ^125I-hAM per 5 ml protein blocking matrix. […]
(In a radioligand displacement assay an active substance lowers the binding of a labelled ligand.)

For test [2] the following is noted: intravenous injection; cited from earlier work.

T1 sequence (P08603 19-1231): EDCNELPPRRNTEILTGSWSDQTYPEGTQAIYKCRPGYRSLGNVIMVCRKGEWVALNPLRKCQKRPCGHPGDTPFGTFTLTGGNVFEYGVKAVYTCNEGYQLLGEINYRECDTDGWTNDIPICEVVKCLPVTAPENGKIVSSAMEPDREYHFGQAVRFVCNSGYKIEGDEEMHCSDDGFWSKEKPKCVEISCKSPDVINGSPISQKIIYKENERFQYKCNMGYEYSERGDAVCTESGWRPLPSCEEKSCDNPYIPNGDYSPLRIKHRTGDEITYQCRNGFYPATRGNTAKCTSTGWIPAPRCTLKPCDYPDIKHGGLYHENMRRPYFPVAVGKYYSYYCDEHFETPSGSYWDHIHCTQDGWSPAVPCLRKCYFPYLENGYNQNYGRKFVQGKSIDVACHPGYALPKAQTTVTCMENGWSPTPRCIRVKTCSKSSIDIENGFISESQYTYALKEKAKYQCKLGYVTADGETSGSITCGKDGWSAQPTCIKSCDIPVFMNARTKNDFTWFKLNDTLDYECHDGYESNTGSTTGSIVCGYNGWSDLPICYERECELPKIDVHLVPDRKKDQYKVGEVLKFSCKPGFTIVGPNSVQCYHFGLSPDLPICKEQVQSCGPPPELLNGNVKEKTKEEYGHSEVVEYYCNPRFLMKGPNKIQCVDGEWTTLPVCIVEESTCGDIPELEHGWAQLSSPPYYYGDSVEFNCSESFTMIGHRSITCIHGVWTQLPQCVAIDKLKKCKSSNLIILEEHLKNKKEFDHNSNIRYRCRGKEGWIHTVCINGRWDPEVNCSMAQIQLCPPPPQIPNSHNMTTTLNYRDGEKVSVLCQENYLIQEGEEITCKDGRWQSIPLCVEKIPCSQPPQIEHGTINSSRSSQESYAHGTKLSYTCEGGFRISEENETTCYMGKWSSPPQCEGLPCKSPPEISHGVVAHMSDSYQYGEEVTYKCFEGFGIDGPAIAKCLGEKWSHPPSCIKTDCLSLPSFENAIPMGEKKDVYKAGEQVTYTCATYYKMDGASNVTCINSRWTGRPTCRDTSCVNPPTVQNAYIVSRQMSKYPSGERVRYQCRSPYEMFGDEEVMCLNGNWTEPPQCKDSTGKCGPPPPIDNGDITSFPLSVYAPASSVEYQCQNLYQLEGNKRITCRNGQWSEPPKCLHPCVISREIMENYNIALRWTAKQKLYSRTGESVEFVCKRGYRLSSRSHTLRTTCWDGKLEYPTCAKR

In test [1], `CC[C@H](C)[C@H](NC(=O)[C@H](CCC(N)=O)NC(=O)[C@H](Cc1c[nH]cn1)NC(=O)[C@H](C)NC(=O)[C@H](CC(C)C)NC(=O)[C@H](CCCCN)NC(=O)[C@H](CCC(N)=O)NC(=O)[C@@H](NC(=O)[C@@H](NC(=O)[C@@H]1CSSC[C@H](NC(=O)CNC(=O)[C@H](Cc2ccccc2)NC(=O)[C@H](CO)NC(=O)[C@H](CCCNC(=N)N)NC(=O)[C@H](CC(C)C)NC(=O)CNC(=O)[C@H](CCC(N)=O)NC(=O)[C@H](Cc2ccccc2)NC(=O)[C@H](CC(N)=O)NC(=O)[C@H](CC(N)=O)NC(=O)[C@H](CCSC)NC(=O)[C@H](CO)NC(=O)[C@H](CCC(N)=O)NC(=O)[C@H](CCCNC(=N)N)NC(=O)[C@@H](N)Cc2ccc(O)cc2)C(=O)N[C@@H](CCCNC(=N)N)C(=O)N[C@@H](Cc2ccccc2)C(=O)NCC(=O)N[C@@H]([C@@H](C)O)C(=O)N1)[C@@H](C)O)C(C)C)C(=O)N[C@@H](Cc1ccc(O)cc1)C(=O)N[C@@H](CCC(N)=O)C(=O)N[C@@H](Cc1ccccc1)C(=O)N[C@H](C(=O)N[C@@H](CC(=O)O)C(=O)N[C@@H](CCCCN)C(=O)N[C@@H](CC(=O)O)C(=O)N[C@@H](CCCCN)C(=O)N[C@@H](CC(=O)O)C(=O)N[C@@H](CC(N)=O)C(=O)N[C@H](C(=O)N[C@@H](C)C(=O)N1CCC[C@H]1C(=O)N[C@@H](CCCNC(=N)N)C(=O)N[C@@H](CO)C(=O)N[C@@H](CCCCN)C(=O)N[C@H](C(=O)N[C@@H](CO)C(=O)N1CCC[C@H]1C(=O)N[C@@H](CCC(N)=O)C(=O)NCC(=O)N[C@@H](Cc1ccc(O)cc1)C(N)=O)[C@@H](C)CC)C(C)C)[C@@H](C)O` [AM, Adrenomedullin] came in with an MIC value of 18.4 ± 1.3 mg/L (≈ 3.05 µM). Further, the “Competition for labeled AM/AMBP-1 complex on ligand blot” value at AMBP-1 (factor H) is “able to dissociate the AM/AMBP-1 (AM/fH) complex”. The “Displacement of 125I-AM from AMBPs” value in the test with AM-binding protein is given as “linear competitive displacement”. In addition, in test [2], the “Insulin and glucose in the bloodstream” value was “reduces the levels of insulin in the bloodstream with a concomitant increase in circulating glucose”.

Values taken from patent US7659081B2, “Determination of AM-binding proteins and the association of adrenomedullin (AM) therewith” (The United States of America as represented by the …, priority 1999, dated 2010).
